In US11478459B2, “Pharmaceutical preparation” (Merck Patent GmbH, priority 2017, dated 2022):
In brackets after ≈: the same amount, converted by molar mass. Like-named read-outs stand apart in the source and are kept apart here.

Test: Solubility of the Compound in water, biorelevant media (FaSSIF, FeSSIF) and oils
Assay type: physicochemical

| Compound | DCS classification (Butler and Dressman, 2010) | solubility (FaSSIF, read-out: solubility in Fasted Simulated Intestinal Fluid (FaSSIF)) [µg/mL] | solubility (FeSSIF, read-out: solubility in FedState Simulated Intestinal Fluid (FeSSIF)) [µg/mL] | dose/solubility ratio (estimated efficacious human dose of >100 mg) | solubility in the tested oils (in words) | solubility in water and biorelevant media (in words) | solubility (FaSSIF, as restated in Example 5, read-out: solubility of the Compound in FaSSIF) [µg/mL] |
| --- | --- | --- | --- | --- | --- | --- | --- |
| COc1cc2ncc3c(c2cc1-c1cnn(C)c1)n(-c1ccc(C#N)cc1F)c(=O)n3C [3-Fluoro-4-[7-methoxy-3-methyl-8-(1-methyl-1H-pyrazol-4-yl)-2-oxo-2,3-dihydro-imidazo[4,5-c]quinolin-1-yl]-benzonitrile] | DCS IIb | 0.25 (≈ 0.584 µM) | 1 (≈ 2.33 µM) | at least 100,000 | low solubility | very low solubility |  |
| COc1cc2ncc3c(c2cc1-c1cnn(C)c1)n(-c1ccc(C#N)cc1F)c(=O)n3C [Compound, 3-Fluoro-4-[7-methoxy-3-methyl-8-(1-methyl-1H-pyrazol-4-yl)-2-oxo-2,3-dihydro-imidazo[4,5-c]quinolin-1-yl]-benzonitrile] |  |  |  |  |  |  | ~0.25 (≈ 0.584 µM) |
